Experimental data from article PMC11997985, “Synthesis and In Vitro Profiling of Psilocin Derivatives: Improved Stability and Synthetic Properties” (Journal of Medicinal Chemistry, 2025).
Several values for one entry are separate records, joined by “and”; a condition that tells them apart may be missing. Identical values can stand only once. Marks after values point to notes of the source that are not given here.

Assays:
[1] = Co-factor experiment: microsome suspension with and without NADPH; type: in vitro ADME, human; details: for Co-factor experiment: degradation with and without addition of NADPH compared; for microsomal CLint: human, human microsome suspension, both with and without the addition of NADPH, read-out: intrinsic clearance
Method: Therefore, additional experiments comparing stability with and without the addition of NADPH cofactor and a very short incubation period were performed (Tables S4 and S5). […] Due to the rapid observed degradation in microsomes, we decided to investigate the stability of five compounds in human plasma, aiming for a broad range of stabilities (Table 2, Table S6). It should be noted that esterase-labile compounds are notoriously difficult to study in microsomal stability studies.[36]
Table S3 Evaluation of metabolic stability in human microsomes
No. Metabolic stability Comment
4k <10/<10 Low retention in chromatography
8 <10/<10 Low retention in chromatography.
Table S4 Results from the modified microsome assay where degradation with and without the addition of NADPH was compared […]
4d Very low peak area for the first time point,
4e Very low peak area for the first time point,
4f Very low peak area for the first time point,
5 Very low peak area for the first time point,
8 No degradation without co -factor […]
metabolism by the microsomes (consisting mainly of cytochrome P450 enzymes) or if it was due to other factors, the compounds (with the exception of 4k) were incubated in the microsome suspension both with and without the addition of NADPH. Samples […]
(§1) were taken at three timepoints, and the degradation was compared to determine if it was dependent on NADPH. Compound 4k […]
(§2) without the addition of NADPH. […]
(§3) microsomes that need to be activated by a co -factor.
(§4) Table S5 Percent of peak area found in microsome suspension 15 seconds after the addition of NADPH in comparison with the same amount dissolved in H2O/EtOH
(§5) No. Area at 0.25 min. in Area in solution % found in microsomes/NADPH (125 nM) microsome
(§6) Comparison with compounds in solution. A comparison was made between the peak area of the compounds in solution with that obtained in the microsome suspension directly after the addition of NADPH (about 0.25 minutes) (Table S5). Before the addition of NADPH, the compounds are equilibrated in the microsome suspension for approximately five minutes. All compounds were prepared in solution by diluting a portion of the DMSO solutions with H2O/EtOH (75:25) to 125 nM (the final concentration of compounds for analysis in the microsome assay).
(§7) For the compounds where no results from the microsome assay could be reported due to low peak area (4d, 4e, 4f & 5), less than one percent of the expected peak area as compared with the area in solution was detected. […]
(§8) degrade rapidly before the addition of the co-factor after five minutes in incubation. For compounds 4g, 4h, 4i & 4j, which were […]
(§9) higher relative peak areas were found. […]
(§10) without NADPH was only found at 15% of the area seen in solution in the microsome suspension.

[2] = Peak area in microsome suspension compared with compounds in solution; type: in vitro ADME, human; details: peak area 15 seconds after addition of NADPH versus same amount (125 nM) in H2O/EtOH
Method: as §1, §2, §3, §4, §5, §6, §7, §8, §9, §10

[3] = Chemical stability in 1.0 M NaHCO3 and 1.0 M HCl
[4] = Metabolic stability in human microsomes; type: in vitro ADME; details: for Metabolic stability in human microsomes: 37 °C, 0.5 mg/mL protein, 1 μM compound, 1 mM NADPH; for Comment on microsome assay: Table S3
porcine liver esterase = experiment: Stability in FaSSIF supplemented with esterase; details: for % prodrug remaining, measured after 1 min: after 1 min at 20 IU/mL; for predicted half-life: at 270 IU/mL; for predicted abs.: calculated remaining prodrug available for GI absorption, predicted level after 5 min at 270 IU/mL (% remaining prodrug); for half-life at 0.292 mM: pig, FaSSIF supplemented with porcine liver esterase (20 IU/mL); for % prodrug remaining, no esterase 30 min: after 30 min with no esterase
[5] = mice dosed with psilocybin or 4-AcO–DMT; cited from earlier work
[6] = Solid solubility assay, phosphate buffer pH 7.4; type: physicochemical; details: phosphate buffer pH 7.4, dry substance

CN(C)CCc1c[nH]c2cccc(OCc3ccccc3)c12 [Compound 3, 4-Benzyloxy-N,N-dimethyltryptamine]
Co-factor experiment [1]: No degradation without co-factor | % found in microsome suspension [2]: 88.5% | half-life at 5 mM ([3]; 1.0 M HCl): > 167 h | half-life at 5 mM ([3]; 1.0 M NaHCO3): > 167 h | Metabolic stability in human microsomes [4]: 43 μL/min/mg protein and 44 μL/min/mg protein

CC(=O)Oc1cccc2[nH]cc(CCN(C)C)c12.O=C(O)/C=C/C(=O)O [Compound 4a, 4-acetoxy-N,N-dimethyltryptamine]
Co-factor experiment [1]: Degradation without co-factor | microsomal CLint [1]: > 200 µL/min/mg | % prodrug remaining, measured after 1 min (porcine liver esterase): 47% | predicted half-life (porcine liver esterase): 4.2 s | predicted abs. (porcine liver esterase): 6.2 × 10^–21 | half-life at 0.292 mM (porcine liver esterase): 54.6 ± 6 s | % found in microsome suspension [2]: 0.0% | psilocin exposure compared with psilocybin [5]: nonsignificant difference in psilocin exposure | half-life at 24 h, 5 mM ([3]; 1.0 M HCl): 5 h | half-life at 24 h, 5 mM ([3]; 1.0 M NaHCO3): 15 h | Metabolic stability in human microsomes [4]: >200^a μL/min/mg protein and >200 μL/min/mg protein | Comment on microsome assay [4]: Rapid degradation

CN(C)CCc1c[nH]c2cccc(OC(=O)C3CC3)c12.O=C(O)/C=C/C(=O)O [Compound 4g]
Co-factor experiment [1]: Degradation without co-factor | microsomal CLint [1]: > 200 µL/min/mg | % prodrug remaining, measured after 1 min (porcine liver esterase): 57% | % prodrug remaining, no esterase 30 min (porcine liver esterase): 100% | predicted half-life (porcine liver esterase): 5.4 s | predicted abs. (porcine liver esterase): 1.9 × 10^–15 | half-life at 0.292 mM (porcine liver esterase): 73.2 ± 2.4 s | % found in microsome suspension [2]: 58% | half-life at 24 h, 5 mM ([3]; 1.0 M HCl): 100 h | half-life at 24 h, 5 mM ([3]; 1.0 M NaHCO3): 183 h | Metabolic stability in human microsomes [4]: >200^a μL/min/mg protein and >200 μL/min/mg protein | Comment on microsome assay [4]: Rapid degradation

CCOC(=O)Oc1cccc2[nH]cc(CCN(C)C)c12.O=C(O)/C=C/C(=O)O [Compound 4i]
Co-factor experiment [1]: Degradation without co-factor | microsomal CLint [1]: > 200 µL/min/mg | % prodrug remaining, measured after 1 min (porcine liver esterase): 28% | % prodrug remaining, no esterase 30 min (porcine liver esterase): 100% | predicted half-life (porcine liver esterase): 2.4 s | predicted abs. (porcine liver esterase): 2.6 × 10^–35 | half-life at 0.292 mM (porcine liver esterase): 33.6 ± 7.2 s | % found in microsome suspension [2]: 7.1% | half-life at 5 mM ([3]; 1.0 M HCl): > 167 h | half-life at 24 h, 5 mM ([3]; 1.0 M NaHCO3): 50 h | Metabolic stability in human microsomes [4]: >200^a μL/min/mg protein and >200 μL/min/mg protein | Comment on microsome assay [4]: Rapid degradation

CN(C)CCc1c[nH]c2cccc(OP(=O)(O)O)c12 [Compound 8, 4-phosphoryloxy-N,N-dimethyltryptamine, reference compound]
solubility at 24 h [6]: > 1000 µM | Co-factor experiment [1]: No degradation without co-factor | % found in microsome suspension [2]: 81.5% | half-life at 5 mM ([3]; 1.0 M HCl): > 167 h | half-life at 24 h, 5 mM ([3]; 1.0 M NaHCO3): 250 h | Metabolic stability in human microsomes [4]: <10/<10^b μL/min/mg protein and <10 μL/min/mg protein
